Where a chain is given by its changes, count along the chain named. “And” between values parts separate entries of the source, which are not always exact repeats. Equal values may be shown once. Read-outs that look alike come from different tables or passages of the source.
Experiments:
N96A TAS2R16 = molecular target: T1, N96A TAS2R16 (Homo sapiens, UniProt Q9NYV7, N96A); assay: Ca2+ flux assay, N96A TAS2R16 variant; type: cell-based; details: Fig. 7 dose-response
T1 construct: FLAG (N); expressed in transfected cells; host or cells: HEK-293T
T1 sequence (Q9NYV7 whole entry N96A): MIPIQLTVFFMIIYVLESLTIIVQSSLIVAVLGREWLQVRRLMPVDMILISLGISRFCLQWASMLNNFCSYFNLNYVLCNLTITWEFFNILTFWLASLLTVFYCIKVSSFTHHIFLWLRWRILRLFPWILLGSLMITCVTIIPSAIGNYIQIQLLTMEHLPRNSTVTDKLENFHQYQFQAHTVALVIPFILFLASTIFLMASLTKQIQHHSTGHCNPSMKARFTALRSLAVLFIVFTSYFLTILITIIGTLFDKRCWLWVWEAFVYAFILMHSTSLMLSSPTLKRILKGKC
Protocol: (§1) The TAS2R16 mutation library was tested for function using a Ca^2+ flux assay as described previously. Later screens of individual TAS2R16 mutant clones used 4-nitrophenyl-β-D-glucopyranoside. Briefly, HEK-293T cells, in poly-lysine coated, black 384-well plates with clear bottoms (Costar), were transfected with the TAS2R16 mutation library, and a plasmid expressing a Gα16 chimera containing the last 44 amino acids of rat gustducin (Gα16gust44). Cells were incubated for 22 hours at 37 °C then washed twice with a calcium indicator dye in HBSS containing 20 mM HEPES (Calcium 4 Assay kit, Molecular Devices), incubated with HBSS for 1.5 hr, then moved to a Flexstation II-384 (Molecular Devices) set at 32 °C. […] Concentrations for mutation library screening were chosen to be approximately 2 to 3 times higher than the EC50 values for the ligands to maximize the sensitivity of detecting decreases in signaling due to the mutation in each clone.
(§2) For Ca^2+ flux assays, the value of fluorescence at 30 seconds after ligand addition (the time of peak signal for wild-type TAS2R16) was used as the maximum value. […] Data sets were analyzed and represented as percentage over baseline signal. Mean and standard deviation values were calculated for each clone from replicate assay data.
(§3) Ligand dose-response data was analyzed with Graphpad Prism 5 software. […]

S228T TAS2R16 = molecular target: T2, S228T TAS2R16 (Homo sapiens, UniProt Q9NYV7, S228T); assay: Ca2+ flux assay, mutation library clone S228T; type: cell-based; details: library screening concentrations
T2 construct: FLAG (N); expressed in transfected cells; host or cells: HEK-293T
T2 sequence (Q9NYV7 1-291 S228T): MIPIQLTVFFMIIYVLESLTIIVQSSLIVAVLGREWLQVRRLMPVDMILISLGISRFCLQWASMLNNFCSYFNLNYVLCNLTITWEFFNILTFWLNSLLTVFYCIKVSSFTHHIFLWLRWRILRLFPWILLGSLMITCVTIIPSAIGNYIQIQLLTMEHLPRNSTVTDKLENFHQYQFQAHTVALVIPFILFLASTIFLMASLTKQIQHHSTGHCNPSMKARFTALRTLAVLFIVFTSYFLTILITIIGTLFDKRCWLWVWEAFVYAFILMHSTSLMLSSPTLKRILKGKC
Protocol: as §1
(§4) For Ca^2+ flux assays, the value of fluorescence at 30 seconds after ligand addition (the time of peak signal for wild-type TAS2R16) was used as the maximum value. […] Raw data obtained from surface expression and flux experiments were normalized to the values for wild-type TAS2R16 on each plate. Data sets were analyzed and represented as percentage over baseline signal. Mean and standard deviation values were calculated for each clone from replicate assay data.

W61R TAS2R16 = molecular target: T3, W61R TAS2R16 (Homo sapiens, UniProt Q9NYV7, W61R); assay: Ca2+ flux assay, mutation library clone W61R; type: cell-based; details: 3 mM salicin, mean (range, max-min), n=3
T3 construct: V5; expressed in transfected cells; host or cells: HEK-293T
T3 sequence (Q9NYV7 whole entry W61R): as the sequence (Q9NYV7 whole entry N96A) above, with W61R, A96N counted along it
Protocol: as §1, §2

L276R TAS2R16 = molecular target: T4, L276R TAS2R16 (Homo sapiens, UniProt Q9NYV7, L276R); assay: Ca2+ flux assay, mutation library clone L276R; type: cell-based; details: 3 mM salicin, mean (range, max-min), n=3
T4 construct: V5; expressed in transfected cells; host or cells: HEK-293T
T4 sequence (Q9NYV7 whole entry L276R): as the sequence (Q9NYV7 whole entry N96A) above, with A96N, L276R counted along it
Protocol: as §1, §2

M271R TAS2R16 = molecular target: T5, M271R TAS2R16 (Homo sapiens, UniProt Q9NYV7, M271R); assay: Ca2+ flux assay, mutation library clone M271R; type: cell-based; details: 3 mM salicin, mean (range, max-min), n=3
T5 construct: Each construct in the mutation library was tested for full-length TAS2R16 translation; V5; expressed in transfected cells; host or cells: HEK-293T
T5 sequence (Q9NYV7 whole entry M271R): as the sequence (Q9NYV7 whole entry N96A) above, with A96N, M271R counted along it
Protocol: as §1, §2

Q24R TAS2R16 = molecular target: T6, Q24R TAS2R16 (Homo sapiens, UniProt Q9NYV7, Q24R); assay: Ca2+ flux assay, mutation library clone Q24R; type: cell-based; details: 3 mM salicin, mean (range, max-min), n=3
T6 construct: FLAG (N); expressed in transfected cells; host or cells: HEK-293T
T6 sequence (Q9NYV7 whole entry Q24R): as the sequence (Q9NYV7 whole entry N96A) above, with Q24R, A96N counted along it
Protocol: as §1, §2

C104R TAS2R16 = molecular target: T7, C104R TAS2R16 (Homo sapiens, UniProt Q9NYV7, C104R); assay: Ca2+ flux assay, mutation library clone C104R; type: cell-based; details: 3 mM salicin, mean (range, max-min), n=3
T7 construct: Each construct in the mutation library was tested for full-length TAS2R16 translation; V5; expressed in transfected cells; host or cells: HEK-293T
T7 sequence (Q9NYV7 whole entry C104R): as the sequence (Q9NYV7 whole entry N96A) above, with A96N, C104R counted along it
Protocol: as §1, §2

D46A TAS2R16 = molecular target: T8, D46A TAS2R16 (Homo sapiens, UniProt Q9NYV7, D46A); assay: Ca2+ flux assay, mutation library clone D46A; type: cell-based; details: 3 mM salicin, mean (range, max-min), n=3
T8 construct: FLAG (N); expressed in transfected cells; host or cells: HEK-293T
T8 sequence (Q9NYV7 whole entry D46A): as the sequence (Q9NYV7 whole entry N96A) above, with D46A, A96N counted along it
Protocol: as §1, §2

M64R TAS2R16 = molecular target: T9, M64R TAS2R16 (Homo sapiens, UniProt Q9NYV7, M64R); assay: Ca2+ flux assay, mutation library clone M64R; type: cell-based; details: 3 mM salicin, mean (range, max-min), n=3
T9 construct: Each construct in the mutation library was tested for full-length TAS2R16 translation; V5; expressed in transfected cells; host or cells: HEK-293T
T9 sequence (Q9NYV7 whole entry M64R): as the sequence (Q9NYV7 whole entry N96A) above, with M64R, A96N counted along it
Protocol: as §1, §2

N172K TAS2R16 = molecular target: T10, N172K TAS2R16 (Homo sapiens, UniProt Q9NYV7, N172K); assay: Ca2+ flux assay, mutation library clone N172K; type: cell-based; details: 3 mM salicin, mean (range, max-min), n=3
T10 construct: Each construct in the mutation library was tested for full-length TAS2R16 translation; V5; expressed in transfected cells; host or cells: HEK-293T
T10 sequence (Q9NYV7 whole entry N172K): as the sequence (Q9NYV7 whole entry N96A) above, with A96N, N172K counted along it
Protocol: as §1, §2

wild-type TAS2R16 = molecular target: T11, wild-type TAS2R16 (Homo sapiens, UniProt Q9NYV7); assay: Ca2+ flux assay, HEK-293T cells expressing wild-type TAS2R16 and Gα16gust44; type: cell-based
T11 construct: FLAG (N); expressed in transfected cells; host or cells: HEK-293T
T11 sequence (Q9NYV7 1-291): T2 sequence (Q9NYV7 1-291 S228T) with T228S
Protocol: as §1, §4
Ligand dose-response data was analyzed with Graphpad Prism 5 software. Data was baseline subtracted and then fit using a sigmoidal dose-response (variable slope) equation.

TAS2R16 = details: read-out: EC50, reported value; cited from earlier work
Q60R TAS2R16 = molecular target: T12, Q60R TAS2R16 (Homo sapiens, UniProt Q9NYV7, Q60R); assay: Ca2+ flux assay, mutation library clone Q60R; type: cell-based; details: 3 mM salicin, mean (range, max-min), n=3
T12 construct: V5; expressed in transfected cells; host or cells: HEK-293T
T12 sequence (Q9NYV7 whole entry Q60R): as the sequence (Q9NYV7 whole entry N96A) above, with Q60R, A96N counted along it
Protocol: as §1, §2

I21F TAS2R16 = molecular target: T13, I21F TAS2R16 (Homo sapiens, UniProt Q9NYV7, I21F); assay: Ca2+ flux assay, mutation library clone I21F; type: cell-based; details: 3 mM salicin, mean (range, max-min), n=3
T13 construct: FLAG (N); expressed in transfected cells; host or cells: HEK-293T
T13 sequence (Q9NYV7 whole entry I21F): as the sequence (Q9NYV7 whole entry N96A) above, with I21F, A96N counted along it
Protocol: as §1, §2

L134R TAS2R16 = molecular target: T14, L134R TAS2R16 (Homo sapiens, UniProt Q9NYV7, L134R); assay: Ca2+ flux assay, mutation library clone L134R; type: cell-based; details: 3 mM salicin, mean (range, max-min), n=3
T14 construct: Each construct in the mutation library was tested for full-length TAS2R16 translation; V5; expressed in transfected cells; host or cells: HEK-293T
T14 sequence (Q9NYV7 whole entry L134R): as the sequence (Q9NYV7 whole entry N96A) above, with A96N, L134R counted along it
Protocol: as §1, §2

N96T TAS2R16 = molecular target: T15, N96T TAS2R16 (Homo sapiens, UniProt Q9NYV7, N96T); assay: Ca2+ flux assay, N96T TAS2R16 variant; type: cell-based; details: Fig. 7 dose-response
T15 construct: FLAG (N); expressed in transfected cells; host or cells: HEK-293T
T15 sequence (Q9NYV7 whole entry N96T): as the sequence (Q9NYV7 whole entry N96A) above, with A96T counted along it
Protocol: as §1, §2, §3

S97R TAS2R16 = molecular target: T16, S97R TAS2R16 (Homo sapiens, UniProt Q9NYV7, S97R); assay: Ca2+ flux assay, mutation library clone S97R; type: cell-based; details: 3 mM salicin, mean (range, max-min), n=3
T16 construct: Each construct in the mutation library was tested for full-length TAS2R16 translation; V5; expressed in transfected cells; host or cells: HEK-293T
T16 sequence (Q9NYV7 whole entry S97R): as the sequence (Q9NYV7 whole entry N96A) above, with A96N, S97R counted along it
Protocol: as §1, §2

S108T TAS2R16 = molecular target: T17, S108T TAS2R16 (Homo sapiens, UniProt Q9NYV7, S108T); assay: Ca2+ flux assay, mutation library clone S108T; type: cell-based; details: library screening concentrations
T17 construct: FLAG (N); expressed in transfected cells; host or cells: HEK-293T
T17 sequence (Q9NYV7 1-291 S108T): T2 sequence (Q9NYV7 1-291 S228T) with S108T, T228S
Protocol: as §1, §4

OCc1ccccc1O[C@@H]1O[C@H](CO)[C@@H](O)[C@H](O)[C@H]1O [salicin]
EC50 (N96A TAS2R16): 6.5 mM | Ca2+ flux signaling value (S228T TAS2R16): 90 % of wild-type | Ca2+ flux in response to salicin (W61R TAS2R16): 15 (7) % of wild-type | Ca2+ flux in response to salicin (L276R TAS2R16): 17 (7) % of wild-type | Ca2+ flux in response to salicin (M271R TAS2R16): 7 (6) % of wild-type | Ca2+ flux in response to salicin (Q24R TAS2R16): 9 (9) % of wild-type | Ca2+ flux in response to salicin (C104R TAS2R16): 9 (1) % of wild-type | Ca2+ flux in response to salicin (D46A TAS2R16): 8 (9) % of wild-type | Ca2+ flux in response to salicin (M64R TAS2R16): 14 (1) % of wild-type | Ca2+ flux in response to salicin (N172K TAS2R16): 83 (13) % of wild-type and 83 % of wild-type | EC50 (wild-type TAS2R16; Fig. 5b dose-response, wild-type TAS2R16, read-out: EC50 (WT)): 1.1 mM | EC50 (wild-type TAS2R16; Fig. 6 comparative dose-response, wild-type TAS2R16, read-out: EC50 (WT)): 1.7 mM | EC50 (wild-type TAS2R16; Fig. 7 dose-response, wild-type TAS2R16, read-out: EC50 (WT)): 5.5 mM | EC50 (wild-type TAS2R16; Fig. 2d dose-response, wild-type TAS2R16, HEK-293T, read-out: EC50): 1.2 mM | activation of wild-type TAS2R16 (wild-type TAS2R16; wild-type TAS2R16, HEK-293T): robust receptor activation | EC50 (TAS2R16): 3 mM | Ca2+ flux in response to salicin (Q60R TAS2R16): 4 (7) % of wild-type | Ca2+ flux in response to salicin (I21F TAS2R16): 9 (5) % of wild-type | Ca2+ flux in response to salicin (L134R TAS2R16): 1 (8) % of wild-type | EC50 (N96T TAS2R16): 0.8 mM | Ca2+ flux in response to salicin (S97R TAS2R16): 0 (5) % of wild-type | Ca2+ flux signaling value (S108T TAS2R16): 99 % of wild-type

Source: publication PMC5552880, “The Bitter Taste Receptor TAS2R16 Achieves High Specificity and Accommodates Diverse Glycoside Ligands by using a Two-faced Binding Pocket” (Scientific Reports, 2017)
